Laboratory results from publication PMC11111955, “Safety and efficacy evaluation of halicin as an effective drug for inhibiting intestinal infections” (Frontiers in Pharmacology, 2024).

Key:
WP2uvApKM101 = experiment: Ames test; assay type: cell-based, Escherichia coli
Protocol: (§1) The experiments were performed in triplicate.

TA97a = experiment: Ames test; assay type: cell-based, Salmonella typhimurium; settings: -S9, 50 μg/plate
Protocol: as §1

TA98 = experiment: Ames test; assay type: cell-based, Salmonella typhimurium; settings: TA98, -S9, 50 μg/plate
Protocol: as §1

TA100 = experiment: Ames test; assay type: cell-based, Salmonella typhimurium; settings: TA100, -S9, 1 μg/plate
Protocol: as §1

Mouse spermatozoa = settings: positive control group, 40 mg/kg cyclophosphamide
mouse bone marrow cells = settings: positive control group, 40 mg/kg cyclophosphamide
[1] = tested on: bone marrow polychromatic erythrocytes; experiment: Micronucleus experiment of mammalian bone marrow cells; settings: positive control group, 40 mg/kg cyclophosphamide

Nc1ccc2cc3ccccc3cc2c1 [2-AT, 2-Aminoanthracene] was tested, and the “Ames test bacterial counts” value (WP2uvApKM101; WP2uvApKM101, +S9, 10 μg/plate) was 546 ± 26.9.
For CN(C)c1ccc(N=NS(=O)(=O)O)cc1 [DDT, fenaminosulf], the “Ames test bacterial counts” value (TA97a) was 3,451 ± 53.7 and the “Ames test bacterial counts” value (TA98) was 2,985 ± 76.4.
For COS(C)(=O)=O [MSM, methyl methanesulfonate], the “Ames test bacterial counts” value (TA100) was 3,042 ± 69.3 and the “Ames test bacterial counts” value (WP2uvApKM101; WP2uvApKM101, -S9, 1 μg/plate) was 926 ± 45.3.
With O=P1(N(CCCl)CCCl)NCCCO1 (centres unmarked) [Positive, cyclophosphamide] the “Abnormal ratio (%)” value (Mouse spermatozoa; male ICR mice) was 8.34 ± 0.47%, the “Number of sperm abnormality” value (Mouse spermatozoa; male ICR mice, of 5 × 1,000 sperms observed) was 417 and the “Abnormal sperms counted ratio (%): Amorphous” value (Mouse spermatozoa) was 48.33 ± 4.33%. The “Abnormal sperms counted ratio (%): Banana shape” value (Mouse spermatozoa) was 10.58 ± 1.46%, the “Abnormal sperms counted ratio (%): Kinks tail” value (Mouse spermatozoa) was 5.76 ± 0.94% and the “Abnormal sperms counted ratio (%): Large round head” value (Mouse spermatozoa) was 9.37 ± 1.03%. The “Abnormal sperms counted ratio (%): No hook” value (Mouse spermatozoa) was 10.07 ± 1.23%, the “Abnormal sperms counted ratio (%): Two head” value (Mouse spermatozoa) was 5.52 ± 1.36% and the “Abnormal sperms counted ratio (%): Two tail” value (Mouse spermatozoa) was 4.84 ± 1.99%. For the same compound, the “Chromosome aberration (%)” value (mouse bone marrow cells) was 18.6 ± 7.67%, the “Number of cells with chromosome aberration” value (mouse bone marrow cells; of 5 × 100 cells at metaphase) was 93 and the “PCE micronucleus (‰)” value ([1]; Female mice) was 18.8 ± 1.9 ‰. For the same compound, the PCE/RBC ([1]; Female mice) was 0.5 ± 0.04, the “PCE micronucleus (‰)” value ([1]; Male mice) was 18.8 ± 2.6 ‰ and the PCE/RBC ([1]; Male mice) was 0.51 ± 0.09.
